Assay results reported in publication PMC10451034, “Highly Efficient Photosensitizers with Molecular Vibrational Torsion for Cancer Photodynamic Therapy” (ACS Central Science, 2023).

Key:
HepG2 cells [1] = test: Mitochondrial membrane potential detection by JC-1 staining; format: cell-based, human; conditions: 660 nm irradiation (6 J/cm^2)
Experimental: Next, in order to verify the disruption effect on cell structural integrity of the ^1O2 generation by QTCy7-R under irradiation, JC-1 staining imaging was conducted to monitor the mitochondria membrane potential. […] On the other hand, cell membrane damage caused by the photooxidation of QTCy7-Ac and QTCy7-CHO could be confirmed by a visualized observation. […] Furthermore, the lactate dehydrogenase (LDH) content in cell culture medium was measured to characterize the extent of cell membrane damage.[49] […]
medium (DMEM, Invitrogen) with 10 % fetal bovine serum (Invitrogen) and 1% penicillinstreptomycin. All cells were treated at 37 °C with the humidified atmosphere containing 5% CO2 and 95% air. […]
(§1) Confocal fluorescence imaging
After culturing the cells in 35 mm glass-bottom cell dishes for 24 h, the DMEM medium was replaced with saline, then QTCy7-R was added (3 μM). The confocal fluorescence imaging was carried out and images were recorded. […] After fluorescence imaging, colocalization coefficient was analyzed and recorded. […]
(§2) fluorescence signal (JC-1 monomer). […]
(§3) 2,7-dichlorofluorescein diacetate (DCFH-DA) Detection Kit was chosen to validate the intracellular ROS generation. […] Then the cells were exposed under NIR irradiation, after which the confocal fluorescence imaging was performed . […]

HepG2 cells [2] = test: Intracellular ROS detection with DCFH-DA; format: cell-based, human; conditions: after 660 nm light irradiation
Experimental: In order to explore the mechanism of cellular structure destruction caused by QTCy7-R, intracellular ROS generation was investigated by DCFH-DA reagent. […] Ulteriorly, cell destruction caused by ROS generation was assessed by Calcein-AM/propidium iodide (PI)-mediated fluorescence imaging (Figures 9c and S21). […]
medium (DMEM, Invitrogen) with 10 % fetal bovine serum (Invitrogen) and 1% penicillinstreptomycin. All cells were treated at 37 °C with the humidified atmosphere containing 5% CO2 and 95% air. Before conducting cell imaging experiments, all types of cells were maintained on 35 mm glass-bottom cell dishes for 24 h.
as §1
After culturing the cells in 35 mm glass-bottom cell dishes for 24 h, the DMEM medium was replaced with saline, then QTCy7-R was added (3 μM). The confocal fluorescence imaging was carried out and images were recorded. (λex = 640 nm, λem = 680-780 nm). […] After fluorescence imaging, colocalization coefficient was analyzed and recorded. […]
as §2, §3

[3] = Singlet oxygen yield in PBS with singlet oxygen sensor green (SOSG); format: physicochemical; conditions: 660 nm irradiation
Experimental: In order to further investigate the PDT ability of QTCy7-R on cancer cells, the UV–vis absorption and emission spectra and ^1O2 production capacity of QTCy7-R were tested in phosphate-buffered solution (PBS) to better mimic the cellular environment. […] Meanwhile, the fluorescence quenching of QTCy7-Ph and QTCy7-CHO also confirmed their aggregation in aqueous solution compared to the intense fluorescence emission of QTCy7-Ac. Furthermore, singlet oxygen sensor green (SOSG) was selected to investigate the ^1O2 quantum yield in PBS.
QTCy7-Ph, (e) QTCy7-Ac, (f) QTCy7-CHO, (g) TCy7 and (h) MB under 660 nm irradiation (4 mW/cm2) in PBS. (i) The relative singlet oxygen yield of different compounds in PBS.
Figure S19. (a) The cellular uptake of QTCy7-R in HepG2 cells (QTCy7-Me/QTCy7-Ph: λex = 640 […]
μm). (b) The fluorescence intensity of QTCy7-R in cell at different time. (c) The LDH release rate of cells under different treatment conditions.
Figure S20. The enlarged images of (a) QTCy7-Ac and (b) QTCy7-CHO caused cell membrane destruction at 0 min and 4 min. Yellow arrows indicate the formation of distinct bubble-like structures on cell membrane. (λex = 640 nm, λem = 650-750 nm, scale bars: 20 μm). […]

Structure (SMILES)	mitochondrial membrane potential change (HepG2 cells [1])	intracellular ROS generation (DCFH-DA fluorescence) (HepG2 cells [2])	1O2 quantum yield relative to MB [3] [times]
CCN1/C(=C/C=C2\C=C(C)C=C(/C=C/c3sc4ccccc4[n+]3CC)C2=O)Sc2ccccc21 [QTCy7-Me]	severe mitochondrial depolarization		
CCN1/C(=C/C=C2\C=C(c3ccccc3)C=C(/C=C/c3sc4ccccc4[n+]3CC)C2=O)Sc2ccccc21 [QTCy7-Ph]	severe mitochondrial depolarization	stronger fluorescence signal	
CCOC(=O)C1=C/C(=C\C=C2/Sc3ccccc3N2CC)C(=O)C(/C=C/c2sc3ccccc3[n+]2CC)=C1 [QTCy7-Ac]		stronger fluorescence signal	5.8
